This note sets out measurements from patent US11161855B2, “Tricyclic fused thiophene derivatives as JAK inhibitors” (Incyte Corporation, priority 2012, dated 2021).

The test system of this test is human JAK1 (a.a. 837-1142). Briefly: In vitro JAK kinase assay (HTRF), JAK1. It is filed as biochemical. Conditions: ratio of IC50s, 1 mM ATP. As to the method: Compounds herein were tested for inhibitory activity of JAK targets according to the following in vitro assay described in Park et al., Analytical Biochemistry 1999, 269, 94-104. The catalytic domains of human JAK1 (a.a. 837-1142), JAK2 (a.a. 828-1132) and JAK3 (a.a. 781-1124) were expressed using baculovirus in insect cells and purified. The catalytic activity of JAK1, JAK2 or JAK3 was assayed by measuring the phosphorylation of a biotinylated peptide. The phosphorylated peptide was detected by homogenous time resolved fluorescence (HTRF). IC50s of compounds were measured for each kinase in the 40 μL reactions that contain the enzyme, ATP and 500 nM peptide in 50 mM Tris (pH 7.8) buffer with 100 mM NaCl, 5 mM DTT, and 0.1 mg/mL (0.01%) BSA. For the 1 mM IC50 measurements, ATP concentration in the reactions was 1 mM. Reactions were carried out at room temperature for 1 hour and then stopped with 20 μL 45 mM EDTA, 300 nM SA-APC, 6 nM Eu-Py20 in assay buffer (Perkin Elmer, Boston, Mass.). Binding to the Europium labeled antibody took place for 40 minutes and HTRF signal was measured on a PHERA star plate reader (BMG, Cary, N.C.). The Example compounds were each tested in the Example A assay (see Table 1 for data for the compounds of the examples as tested by the assay of Example A at 1 mM ATP).
For orientation: In TR-FRET formats the signal depends on donor and acceptor labels being close together.
Consider `CCNC(=O)C[C@H]1CC[C@H](n2c([C@@H](C)O)nc3cnc4ccsc4c32)CC1` [Example 31, N-Ethyl-2-(trans-4-{2-[(1R)-1-hydroxyethyl]-1H-imidazo[4,5-d]thieno[3,2-b]pyridin-1-yl}cyclohexyl)acetamide], for which the JAK2/JAK1 is greater than 10.
In the case of `C[C@@H](O)c1nc2cnc3ccsc3c2n1C1CCCC(CCC#N)C1` (stereo partly drawn) [Example 32, 3-(3-{2-[(1R)-1-Hydroxyethyl]-1H-imidazo[4,5-d]thieno[3,2-b]pyridin-1-yl}cyclohexyl)propanenitrile], the JAK2/JAK1 is recorded as greater than 10.
Under `Cc1nc2cnc3ccsc3n2c1-c1ccc(CC#N)cc1` [Example 33, [4-(7-Methylimidazo[1,2-a]thieno[3,2-e]pyrazin-8-yl)phenyl]acetonitrile] stands greater than 7.
The figure for `Cc1nc2cnc3ccsc3c2n1[C@H]1CC[C@H](CC#N)OC1` [Example 38, [(2R,5S)-5-(2-Methyl-1H-imidazo[4,5-d]thieno[3,2-b]pyridin-1-yl)tetrahydro-2H-pyran-2-yl]acetonitrile] is greater than 10.
Regarding `CCc1nc2cnc3ccsc3c2n1[C@H]1CC[C@H](CC#N)OC1` [Example 39, [(2R,5S)-5-(2-Ethyl-1H-imidazo[4,5-d]thieno[3,2-b]pyridin-1-yl)tetrahydro-2H-pyran-2-yl]acetonitrile], the JAK2/JAK1 is listed as greater than 10.
The figure for `CC(C)c1nc2cnc3ccsc3c2n1[C@H]1CC[C@H](CC#N)OC1` [Example 42, [(2R,5S)-5-(2-Isopropyl-1H-imidazo[4,5-d]thieno[3,2-b]pyridin-1-yl)tetrahydro-2H-pyran-2-yl]acetonitrile] is greater than 10; for `N#CC[C@H]1CC[C@H](n2c(C3CC3)nc3cnc4ccsc4c32)CO1` [Example 43, [(2R,5S)-5-(2-Cyclopropyl-1H-imidazo[4,5-d]thieno[3,2-b]pyridin-1-yl)tetrahydro-2H-pyran-2-yl]acetonitrile] it is greater than 10; for `C[C@@H](O)c1nc2cnc3ccsc3c2n1[C@@H]1CC[C@@H](CC#N)OC1` [Example 44, ((2S,5R)-5-{2-[(1R)-1-Hydroxyethyl]-1H-imidazo[4,5-d]thieno[3,2-b]pyridin-1-yl}tetrahydro-2H-pyran-2-yl)acetonitrile] it is greater than 10.
The figure for `C[C@H](O)c1nc2cnc3ccsc3c2n1[C@H]1CC[C@H](CC#N)OC1` [Example 45, ((2R,5S)-5-{2-[(1S)-1-Hydroxyethyl]-1H-imidazo[4,5-d]thieno[3,2-b]pyridin-1-yl}tetrahydro-2H-pyran-2-yl)acetonitrile] is greater than 10; for `Cc1nn2cnc3ccsc3c2c1-c1ccc(CC#N)cc1` [Example 46, [4-(8-Methylpyrazolo[1,5-c]thieno[2,3-e]pyrimidin-9-yl)phenyl]acetonitrile] it is greater than 3; for `CCc1nc2cnc3ccsc3c2n1[C@H]1CC[C@H](CC#N)CC1` [Example 47, [trans-4-(2-Ethyl-1H-imidazo[4,5-d]thieno[3,2-b]pyridin-1-yl)cyclohexyl]acetonitrile] it is greater than 10.
Under `Cc1nc2cnc3ccsc3c2n1[C@H]1CC[C@H](CC#N)CC1` [Example 48, [trans-4-(2-Methyl-1H-imidazo[4,5-d]thieno[3,2-b]pyridin-1-yl)cyclohexyl]acetonitrile] stands greater than 7.
Regarding `C[C@@H](O)c1nc2cnc3ccsc3c2n1[C@H]1CC[C@@H](CC#N)C1.O=C(O)C(F)(F)F` [Example 49, ((1R,3S)-3-{2-[(1R)-1-Hydroxyethyl]-1H-imidazo[4,5-d]thieno[3,2-b]pyridin-1-yl}cyclopentyl)acetonitrile Trifluoroacetate], the JAK2/JAK1 is recorded as greater than 10.
As to `CCOC(=O)N1CCC[C@H](n2c([C@@H](C)O)nc3cnc4ccsc4c32)C1` [Example 50, Ethyl (3S)-3-{2-[(1R)-1-hydroxyethyl]-1H-imidazo[4,5-d]thieno[3,2-b]pyridin-1-yl}piperidine-1-carboxylate], the JAK2/JAK1 was greater than 10.
Under `C[C@@H](O)c1nc2cnc3ccsc3c2n1[C@H]1CCCN(C(=O)CC#N)C1.O=C(O)C(F)(F)F` [Example 51, 3-((3S)-3-{2-[(1R)-1-Hydroxyethyl]-1H-imidazo[4,5-d]thieno[3,2-b]pyridin-1-yl}piperidin-1-yl)-3-oxopropanenitrile trifluoroacetate] stands greater than 10.
Under `C[C@@H](O)c1nc2cnc3ccsc3c2n1[C@H]1CCCN(C(=O)CCc2cn[nH]c2)C1` [Example 53, (1R)-1-(1-{(3S)-1-[3-(1H-Pyrazol-4-yl)propanoyl]piperidin-3-yl}-1H-imidazo[4,5-d]thieno[3,2-b]pyridin-2-yl)ethanol] stands greater than 10.
Consider `C[C@@H](O)c1nc2cnc3ccsc3c2n1[C@H]1CCCN(C(=O)CCc2cccnc2)C1` [Example 54, (1R)-1-{1-[(3S)-1-(3-Pyridin-3-ylpropanoyl)piperidin-3-yl]-1H-imidazo[4,5-d]thieno[3,2-b]pyridin-2-yl}ethanol], for which the JAK2/JAK1 is greater than 10.
Consider `CC(CC(=O)N1CCC[C@H](n2c([C@@H](C)O)nc3cnc4ccsc4c32)C1)c1ccccc1` (stereo partly drawn) [Example 55, (1R)-1-{1-[(3S)-1-(3-Phenylbutanoyl)piperidin-3-yl]-1H-imidazo[4,5-d]thieno[3,2-b]pyridin-2-yl}ethanol], for which the JAK2/JAK1 is given as greater than 10.
Take `C[C@@H](O)c1nc2cnc3ccsc3c2n1[C@H]1CCCN(CCC#N)C1` [Example 56, 3-((3S)-3-{2-[(1R)-1-Hydroxyethyl]-1H-imidazo[4,5-d]thieno[3,2-b]pyridin-1-yl}piperidin-1-yl)propanenitrile]: the JAK2/JAK1 was greater than 10.
Under `C[C@@H](O)c1nc2cnc3ccsc3c2n1[C@H]1CCCN(C(=O)CCc2ccccc2)C1` [Example 57] stands greater than 10; under `C[C@@H](O)c1nc2cnc3ccsc3c2n1[C@H]1CCCN(C(=O)CCC#N)C1` [Example 58, 4-((3S)-3-{2-[(1R)-1-Hydroxyethyl]-1H-imidazo[4,5-d]thieno[3,2-b]pyridin-1-yl}piperidin-1-yl)-4-oxobutanenitrile], greater than 10; under `C[C@@H](O)c1nc2cnc3ccsc3c2n1[C@H]1CCCN(C(=O)CCCC#N)C1` [Example 59, 5-((3S)-3-{2-[(1R)-1-Hydroxyethyl]-1H-imidazo[4,5-d]thieno[3,2-b]pyridin-1-yl}piperidin-1-yl)-5-oxopentanenitrile], greater than 10.
Consider `C[C@@H](O)c1nc2cnc3ccsc3c2n1C1CCN(CCCC(F)(F)F)CC1` [Example 60, (1R)-1-{1-[1-(4,4,4-Trifluorobutyl)piperidin-4-yl]-1H-imidazo[4,5-d]thieno[3,2-b]pyridin-2-yl}ethanol], for which the JAK2/JAK1 is on record as greater than 10.
The figure for `C[C@@H](O)c1nc2cnc3ccsc3c2n1C1CCN(CC#N)CC1.O=C(O)C(F)(F)F` [Example 61, (4-{2-[(1R)-1-Hydroxyethyl]-1H-imidazo[4,5-d]thieno[3,2-b]pyridin-1-yl}piperidin-1-yl)acetonitrile trifluoroacetate] is greater than 10; for `C[C@@H](O)c1nc2cnc3ccsc3c2n1[C@H]1CCN(CCC#N)C1` [Example 62, 3-((3S)-3-{2-[(1R)-1-Hydroxyethyl]-1H-imidazo[4,5-d]thieno[3,2-b]pyridin-1-yl}pyrrolidin-1-yl)propanenitrile] it is greater than 10.
Under `C[C@@H](O)c1nc2cnc3ccsc3c2n1[C@H]1CCN(C(=O)CC#N)C1` [Example 63, 3-((3S)-3-{2-[(1R)-1-Hydroxyethyl]-1H-imidazo[4,5-d]thieno[3,2-b]pyridin-1-yl}pyrrolidin-1-yl)-3-oxopropanenitrile] stands greater than 6.
The figure for `C[C@@H](O)c1nc2cnc3ccsc3c2n1[C@H]1CCN(CCCC(F)(F)F)C1` [Example 64, (1R)-1-{1-[(3S)-1-(4,4,4-Trifluorobutyl)pyrrolidin-3-yl]-1H-imidazo[4,5-d]thieno[3,2-b]pyridin-2-yl}ethanol] is greater than 10; for `C[C@@H](O)c1nc2cnc3ccsc3c2n1[C@H]1CCN(CCCC#N)C1` [Example 65, 4-((3S)-3-{2-[(1R)-1-Hydroxyethyl]-1H-imidazo[4,5-d]thieno[3,2-b]pyridin-1-yl}pyrrolidin-1-yl)butanenitrile] it is greater than 10.
On to `C[C@@H](O)c1nc2cnc3ccsc3c2n1[C@H]1CCN(CCCCC#N)C1` [Example 66, 5-((3S)-3-{2-[(1R)-1-Hydroxyethyl]-1H-imidazo[4,5-d]thieno[3,2-b]pyridin-1-yl}pyrrolidin-1-yl)pentanenitrile], for which the JAK2/JAK1 is recorded as greater than 10.
Under `C[C@@H](O)c1nc2cnc3ccsc3c2n1[C@H]1CC[C@H](CC#N)[C@H](N)C1` [Example 67, ((1R,2R,4S)-2-Amino-4-{2-[(1R)-1-hydroxyethyl]-1H-imidazo[4,5-d]thieno[3,2-b]pyridin-1-yl}cyclohexyl)acetonitrile] stands greater than 10; under `CC(N)c1nc2cnc3ccsc3c2n1[C@H]1CC[C@H](CC#N)OC1.O=C(O)C(F)(F)F` (stereo partly drawn) [Example 68, {(2R,5S)-5-[2-(1-Aminoethyl)-1H-imidazo[4,5-d]thieno[3,2-b]pyridin-1-yl]tetrahydro-2H-pyran-2-yl}acetonitrile Trifluoro Acetate], greater than 10.
